Peptide text beside a SMILES is read from it. * marks the point of attachment. Palmitoyl = CCCCCCCCCCCCCCCC(=O)*
Legend:
HUVEC cells = experiment: Endothelial nitric oxide (NO) production, DAF-FM-DA probe; format: cell-based, human; settings: 1 μM, 10 min; abolished by IF1
Protocol: Nitric oxide (NO) was detected using a DAF-FM-DA probe (D2321, Sigma-Aldrich) which forms fluorescent benzotriazole when it reacts with NO. HUVEC cells (PromoCell #C-12203) were seeded in 96-well plates (10,000 cells per well) and cultured in endothelial cell basal medium 2 (PromoCell #C-22211) supplemented with GM2 supplement Mix (PromoCell #C-39211), until 80-90% confluence. The medium was then replaced with M-199 without serum for 4 h, and the cells were incubated for 45 min with DAF-FM-DA (5 μM) diluted in PBS. Cells were treated with increasing concentrations of the different peptides or apoA-I (10 μM) purified from human plasma or histamine (1 mM) as positive control. In another set of experiments, cells were incubated with inhibitors (IF1, 1 μM) for 10 min before treatment with peptides or apoA-I. The fluorescence was recorded for 30 min (λex=495 nm, λem=515 nm) with a Tecan Flash Multimode Reader (Thermo Fisher Scientific). Fluorescence for each condition was compared with the value obtained in untreated cells, and results were expressed as the fold change as compared with the basal condition (untreated cells).

HepG2 cells [1] = experiment: Oleate/palmitate-induced steatosis, intracellular triglyceride content; format: cell-based, human; settings: 1 μM, last 24 h of 48 h oleate/palmitate 0.5 mM (2:1)
Protocol: A solution containing 250 mM palmitate (P0500, Sigma-Aldrich) was first prepared in 0.1 M NaOH at 70 C for 30 min then diluted in DMEM low glucose (D5546, Sigma-Aldrich) containing 10% fatty acid-free BSA (A7030, Sigma-Aldrich) to yield a 10 mM palmitate solution and allowed to dissolve for 30 min at 37° C., filter sterilized and stored in glass vial at −20 C until use. This palmitate stock solution and ready to use oleate solution (03008, Sigma-Aldrich) were used to prepared a 0.5 mM solution at a 2:1 ratio of oleate to palmitate in complete culture medium containing DMEM low glucose, 10% fetal bovine serum, 1% Penicillin-Streptomycin and 1% fatty acid-free BSA.
HepG2 cell were grown in 12-well plates to 60-70% confluence then exposed for 48 h to culture medium (DMEM low glucose, 10% fetal bovine serum, 1% Penicillin-Streptomycin and 1% fatty acid-free BSA) alone or containing 0.5 mM oleate/palmitate mixture (2:1) to induce steatosis. For the last 24 h of the 48 h period, cells were treated with 1 μM of the peptide of formula (I) or the peptide of formula (II).
For measurement of intracellular triglyceride content, cells were washed with PBS and scraped in 5% NP-40 lysis buffer and heated for 10 min at 85° C. Triglycerides were then quantified using triglyceride commercial kit (Biolabo #87319). Values were normalized to protein concentration in cell lysates.

HepG2 cells [2] = experiment: HDL endocytosis assay in hepatocytes; format: cell-based, human; settings: 1 μM; HDL-Alexa568 50 μg/mL, 25 min; abolished by IF1 1 μM
Protocol: HepG2 cells were seeded on 96-well plates at 50,000 cells/well. HDL3 (d 1.12-1.21) were isolated from plasma of healthy human donors and referred to as HDL. HDL was fluorescently labeled with AlexaFluor®568 dye (A10238, Thermofisher Scientific) according the instructions of manufacturer. 1 h30 before the assay, the cells were serum starved for 1 h30 in order to stabilize nucleotide secretion. Cells were incubated with inhibitors (H49K, 1 μM) for 10 min before treatment with the different peptides (1 μM) or apoA-I (10 μg/ml) purified from human plasma. 5 min after peptide treatment, endocytosis was initiated by 50 μg/mL of AlexaFluor568®-labelled HDL. The same experiment was performed with a […] excess of unlabelled HDL (2.5 mg/mL) to determine the nonspecific fluorescence signal. After 25 min at 37° C., cells were then washed in serum-free DMEM and extracellular membrane-bound HDL was disassociated by incubating cells at 4° C. in serum-free DMEM for 90 min. Following washes, cells were lysate in NaOH 0.1M SDS 1% during 2 h, lysates were transferred in a black 96-wells plate and fluorescence was recorded at 568 nm (Varioscan flash). Fluorescence for each condition was substrate with the value obtained in unlabelled HDL condition, and results were expressed as the fold change as compared with the basal condition (untreated cells).

wild-type C57B/L6J mice = experiment: Femoral artery blood flow in conscious mice; format: in vivo, mouse; settings: data not shown
Source text: According to the protocol disclosed in [5], the peptide of formula (I) increased femoral artery blood flow in conscious wild-type C57B/L6J mice in a process that strictly depend on endothelial NO production (data not shown).

Molecule	stimulation of NO production by endothelial cells (HUVEC cells)	reduction of fatty acid-induced intracellular accumulation of triglycerides compared to PBS control (HepG2 cells [1])	effect on HDL endocytosis (HepG2 cells [2])	femoral artery blood flow (wild-type C57B/L6J mice)
CCCCCCCCCCCCCCCC(=O)NCCCC[C@H](NC(=O)[C@H](CCC(=O)O)NC(=O)[C@H](CCCNC(=N)N)NC(=O)[C@H](CO)NC(=O)[C@H](CCC(N)=O)NC(=O)[C@H](C)NC(=O)[C@H](CCCNC(=N)N)NC(=O)[C@H](Cc1ccccc1)NC(=O)[C@H](Cc1ccc(O)cc1)NC(=O)[C@H](CCCNC(=N)N)NC(=O)[C@H](CCC(=O)O)NC(=O)[C@H](CCC(=O)O)NC(=O)[C@H](CCC(=O)O)NC(=O)[C@H](C)NC(=O)[C@H](CCC(N)=O)NC(=O)[C@H](CCC(=O)O)NC(=O)[C@H](CCCNC(=N)N)NC(=O)[C@H](CCCCN)NC(=O)CNC(=O)[C@H](Cc1ccccc1)NC(=O)[C@H](C)NC(=O)CNC(=O)CNC(=O)[C@H](C)NC(=O)[C@H](CCC(=O)O)NC(=O)[C@H](CCCNC(=N)N)NC(=O)[C@@H](NC(=O)[C@H](CO)NC(=O)CNC(=O)[C@H](C)NC(=O)CNC(=O)[C@H](CCCNC(=N)N)NC(C)=O)[C@@H](C)CC)C(N)=O [peptide of formula (II), CH3CO-[SEQ ID NO: 1]-K-[palmitoyl]-NH2] (Ac-RGAGSIREAGGAFGKREQAEEERYFRAQSREK(Palmitoyl)-NH2)	about 50%	32%	stimulated	–
Ac-RGAGSIREAGGAFGKREQAEEERYFRAQSRE-NH2 [peptide of formula (I), CH3CO-[SEQ ID NO: 1]-NH2]	about 50%	18%	stimulated	increased

From patent US20230050846A1, “TREATMENT OF HEPATIC AND CARDIOVASCULAR DISORDERS” (LIFESEARCH, priority 2019, published 2023)
